Measured values taken from patent US6506913B2, “Dimethylfurancarboxyanilide derivatives” (Sankyo Company, Limited, priority 1994, dated 2003).

How the values were obtained:
Type in all cases: cell-based
Tyromyces palustris [1] = assay: Wood preservative efficacy on impregnated Sugi sapwood: hyphal growth and maximum crushing strength; parameters: key: +: No hyphal growth was observed on the test material, and no difference was found in the maximum crushing strength from the healthy wood sample.; ±: A little hyphal growth was observed on the test material, or a little decrease was found in the maximum crushing strength.; −: Hyphal growth was observed on the test material, or clear decrease was found in the maximum crushing strength; settings: 0.1 w/v % methanol solution impregnated; weathering twice; 26° C., 3 weeks
Protocol: (§1) Weathering test was repeated twice in which one cycle of the treatment was washing (about 2 liter per minute supply) with water for 5 hours, and then heating for 19 hours at 60° C. After dry air sterilization, the test samples were prepared. The test materials were placed on the flora of Coriolus versicolor which is a lignin-decomposing fungus, and of Tryomyces palustris which is a cellulose-decomposing fungus, and both of which are designated fungal species for assay of wood preservating effect. Both fungi had been previously grown on an agar medium (malt extract 2%, glucose 1% and peptone 0.5%). After the wood samples were forcedly deteriorated at 26° C. for 3 weeks, the effectiveness was determined from the degree of hyphal growth on the test material and the presence or absence of lowered maximum crushing strength. […] The wood preventive efficacy was judged by the following criteria. +: No hyphal growth was observed on the test material, and no difference was found in the maximum crushing strength from the healthy wood sample. ±: A little hyphal growth was observed on the test material, or a little decrease was found in the maximum crushing strength. −: Hyphal growth was observed on the test material, or clear decrease was found in the maximum crushing strength.

Coriolus versicolor [2] = assay: as above; parameters: key: +: No hyphal growth was observed on the test material, and no difference was found in the maximum crushing strength from the healthy wood sample.; ±: A little hyphal growth was observed on the test material, or a little decrease was found in the maximum crushing strength.; −: Hyphal growth was observed on the test material, or clear decrease was found in the maximum crushing strength; settings: 0.1 w/v % methanol solution impregnated; weathering twice; 26° C., 3 weeks
Protocol: as §1

Tyromyces palustris [3] = assay: Minimum inhibitory concentration by the agar dilution method; settings: potato dextrose agar, 25° C., 5 days
From the text: (§2) Assay of minimum inhibitory concentration by the agar dilution method.
(§3) According to the agar dilution method, on sterilized media (potato dextrose agar medium; potato extract powder 0.4%, glucose 2%, agar 1.5%) prepared to contain certain concentrations of a test sample, flora (about 4 mm in diameter) of wood rotting fungi, Coriolus versicolor and Tyromyces palustris, which has been cultured previously on the same kind of medium, were inoculated.
(§4) Whether there is any potentiation or not has been described in Applied Microbiology 9, 538-541 (1961) by F. C. Kull et al. The assay was carried out according to the method usually employed.

Coriolus versicolor [4] = assay: as above; settings: potato dextrose agar, 25° C., 5 days
From the text: as §2, §3, §4

Serpula lacrymans = assay: Wood preservation test JIS A-9201 (1991): impregnated Sugi sapwood, weathered, forcedly decayed for 12 weeks; settings: weathering 10 cycles, 20° C., mean of 9 samples
Protocol: (1) According to the test method for wood preservation described in the Japan Industrial Standards [JIS A-9201 (1991)], each of the test compounds was dissolved to a defined concentration in methanol. The solution was impregnated under a reduced pressure into a Sugi (Japanese cedar) sapwood (2×2×1) cm and then air-dried. Weathering test was repeated 10 times in which one cycle of the treatment was stirring in water for 8 hours, and then heating for 16 hours at 60° C. The test material was placed on the flora of Serpula lacrymans which had been previously grown on a quartz sand medium (malt extract 2%, glucose 1%, peptone 0.3% and yeast 0.2%), and forcedly decayed at 20° C. for 12 weeks. From the difference between the dry weight of the test material before the test and that after test, the degree of decrease in weight was obtained. […] The test was carried out by use of 9 samples for each condition, and the values shown in Table 2 are the mean values calculated from 9 samples.

[5] = impregnant concentration 0.005 % in methanol
[6] = impregnant concentration 0.01 % in methanol

With `CCCCCc1cccc(NC(=O)c2cc(C)oc2C)c1` [Example 26, 2,5-Dimethylfuran-3-carboxy(3-pentylanilide)] as the compound, how does the “Wood preventive efficacy, Tyromyces palustris” value (Tyromyces palustris [1]) read?
The value was “+”.

And the “Wood preventive efficacy, Coriolus versicolor” value (Coriolus versicolor [2])?
Its value is “+”.

Which results are given for `COC(=O)c1cccc(NC(=O)c2cc(C)oc2C)c1` [Example 6, 2,5-Dimethylfuran-3-carboxy(3-methoxycarbonylanilide)]?
Wood preventive efficacy, Tyromyces palustris (Tyromyces palustris [1]): +; Wood preventive efficacy, Coriolus versicolor (Coriolus versicolor [2]): +

Which results are given for `COC(=O)C=Cc1cccc(NC(=O)c2cc(C)oc2C)c1` [Example 15, 2,5-Dimethylfuran-3-carboxy[3-(2-methoxycarbonylvinyl)anilide]]?
Wood preventive efficacy, Tyromyces palustris (Tyromyces palustris [1]): −; Wood preventive efficacy, Coriolus versicolor (Coriolus versicolor [2]): +

Which results are given for `COCc1cccc(NC(=O)c2cc(C)oc2C)c1` [Example 11, 2,5-Dimethylfuran-3-carboxy(3-methoxymethylanilide)]?
Wood preventive efficacy, Tyromyces palustris (Tyromyces palustris [1]): ±; Wood preventive efficacy, Coriolus versicolor (Coriolus versicolor [2]): +

Which results are given for `CCCCC(=O)Nc1cccc(NC(=O)c2cc(C)oc2C)c1` [Example 9, 2,5-Dimethylfuran-3-carboxy(3-valerylaminoanilide)]?
Wood preventive efficacy, Tyromyces palustris (Tyromyces palustris [1]): −; Wood preventive efficacy, Coriolus versicolor (Coriolus versicolor [2]): −

Which results are given for `CCOCc1cccc(NC(=O)c2cc(C)oc2C)c1` [Example 12, 2,5-Dimethylfuran-3-carboxy(3-ethoxymethylanilide)]?
Wood preventive efficacy, Tyromyces palustris (Tyromyces palustris [1]): ±; Wood preventive efficacy, Coriolus versicolor (Coriolus versicolor [2]): ±

Which “Wood preventive efficacy, Tyromyces palustris” value (Tyromyces palustris [1]) does the source give for `Cc1cc(C(=O)Nc2cccc(C(=O)c3ccccc3)c2)c(C)o1` [Example 7, 2,5-Dimethylfuran-3-carboxy(3-benzoylanilide)] here?
The value was “−”.

And the “Wood preventive efficacy, Coriolus versicolor” value (Coriolus versicolor [2])?
The value was “+”.

Which “Wood preventive efficacy, Tyromyces palustris” value (Tyromyces palustris [1]) does the source give for `Cc1cc(C(=O)Nc2cccc(C(=O)N3CCCCC3)c2)c(C)o1` [Example 3, 2,5-Dimethylfuran-3-carboxy[3-(1-piperidylcarbonyl)anilide]] here?
Its value is “−”.

What about the “Wood preventive efficacy, Coriolus versicolor” value (Coriolus versicolor [2]) of the same compound?
The value was “−”.

With `CCOC(=O)OCC(I)=C(Br)I` [Control compound 2, 3-Bromo-2,3-diiodo-2-propenylethylcarbonate, reference compound] as the compound, how does the “Wood preventive efficacy, Tyromyces palustris” value (Tyromyces palustris [1]) read?
The value was “+”.

What about the “Wood preventive efficacy, Coriolus versicolor” value (Coriolus versicolor [2]) of the same compound?
The value was “+”.

And the “MIC (ppm), single agent” value (Tyromyces palustris [3])?
Its value is 25 ppm.

What about the “MIC (ppm), single agent” value (Coriolus versicolor [4]) of the same compound?
Its value is 15 ppm.

How did the “Mean weight decrease by decay (%)” value (Serpula lacrymans; [5]) turn out when `CCc1cccc(NC(=O)c2cc(C)oc2C)c1` [Example 20, 2,5-Dimethylfuran-3-carboxy(3-ethylanilide)] was run?
Its value is 0.1%.

What about the “Mean weight decrease by decay (%)” value (Serpula lacrymans; [6]) of the same compound?
Its value is 0%.

And the “Wood preventive efficacy, Tyromyces palustris” value (Tyromyces palustris [1])?
The value was “+”.

What about the “Wood preventive efficacy, Coriolus versicolor” value (Coriolus versicolor [2]) of the same compound?
The value was “+”.

And the “MIC (ppm), single agent” value (Tyromyces palustris [3])?
The value was 200 ppm.

What about the “MIC (ppm), single agent” value (Coriolus versicolor [4]) of the same compound?
Its value is 2.5 ppm.

With `CCC(C)c1cccc(NC(=O)c2cc(C)oc2C)c1` (stereo not drawn) [Example 25, 2,5-Dimethylfuran-3-carboxy(3-sec-butylanilide)] as the compound, how does the “Wood preventive efficacy, Tyromyces palustris” value (Tyromyces palustris [1]) read?
The value was “+”.

What about the “Wood preventive efficacy, Coriolus versicolor” value (Coriolus versicolor [2]) of the same compound?
The value was “+”.

Which “Wood preventive efficacy, Tyromyces palustris” value (Tyromyces palustris [1]) does the source give for `Cc1cc(C(=O)Nc2cccc(NC(=O)C3CCCCC3)c2)c(C)o1` [Example 10, 2,5-Dimethylfuran-3-carboxy(3-cyclohexylcarbonylaminoanilide)] here?
Its value is “−”.

And the “Wood preventive efficacy, Coriolus versicolor” value (Coriolus versicolor [2])?
The value was “+”.

With `CC(=O)Nc1cccc(NC(=O)c2cc(C)oc2C)c1` [Example 1, 2,5-Dimethylfuran-3-carboxy(3-acetylaminoanilide)] as the compound, how does the “Wood preventive efficacy, Tyromyces palustris” value (Tyromyces palustris [1]) read?
Its value is “−”.

And the “Wood preventive efficacy, Coriolus versicolor” value (Coriolus versicolor [2])?
The value was “±”.

For `CNC(=O)c1cccc(NC(=O)c2cc(C)oc2C)c1` [Example 2, 2.5-Dimethylfuran-3-carboxy[3-(N-methylcarbamoyl)anilide]], which “Wood preventive efficacy, Tyromyces palustris” value (Tyromyces palustris [1]) is on record?
Its value is “−”.

What about the “Wood preventive efficacy, Coriolus versicolor” value (Coriolus versicolor [2]) of the same compound?
The value was “−”.

Which “Wood preventive efficacy, Tyromyces palustris” value (Tyromyces palustris [1]) does the source give for `CCCCc1cccc(NC(=O)c2cc(C)oc2C)c1` [Example 24, 2,5-Dimethylfuran-3-carboxy(3-butylanilide)] here?
The value was “+”.

And the “Wood preventive efficacy, Coriolus versicolor” value (Coriolus versicolor [2])?
Its value is “+”.

`Cc1cc(C(=O)Nc2cccc(NC(=O)c3ccccc3)c2)c(C)o1` [Example 8, 2,5-Dimethylfuran-3-carboxy(3-benzoylaminoanilide)] was tested. Which “Wood preventive efficacy, Tyromyces palustris” value (Tyromyces palustris [1]) did it give?
The value was “−”.

And the “Wood preventive efficacy, Coriolus versicolor” value (Coriolus versicolor [2])?
The value was “±”.

What does the source list for `CCCCNC(=O)OCC#CI` [B]?
MIC (ppm), single agent (Tyromyces palustris [3]): 2.5 ppm; MIC (ppm), single agent (Coriolus versicolor [4]): 25 ppm

With `Cc1cc(C(=O)Nc2cccc(COC(C)C)c2)c(C)o1` [Example 13, 2,5-Dimethylfuran-3-carboxy(3-isopropyloxymethylanilide)] as the compound, how does the “Wood preventive efficacy, Tyromyces palustris” value (Tyromyces palustris [1]) read?
The value was “+”.

What about the “Wood preventive efficacy, Coriolus versicolor” value (Coriolus versicolor [2]) of the same compound?
The value was “+”.

With `COc1ccc(Cc2cccc(NC(=O)c3cc(C)oc3C)c2)cc1` [Example 14, 2,5-Dimethylfuran-3-carboxy[3-(4-methoxybenzyl)anilide]] as the compound, how does the “Wood preventive efficacy, Tyromyces palustris” value (Tyromyces palustris [1]) read?
Its value is “+”.

And the “Wood preventive efficacy, Coriolus versicolor” value (Coriolus versicolor [2])?
The value was “+”.

Which “Mean weight decrease by decay (%)” value (Serpula lacrymans; [5]) does the source give for `Cc1cc(C(=O)Nc2cccc(C(C)C)c2)c(C)o1` [Example 21, 2,5-Dimethylfuran-3-carboxy(3-isopropylanilide)] here?
Its value is 0%.

What about the “Mean weight decrease by decay (%)” value (Serpula lacrymans; [6]) of the same compound?
The value was 0%.

And the “Wood preventive efficacy, Tyromyces palustris” value (Tyromyces palustris [1])?
Its value is “+”.

And the “Wood preventive efficacy, Coriolus versicolor” value (Coriolus versicolor [2])?
Its value is “+”.

What about the “MIC (ppm), single agent” value (Tyromyces palustris [3]) of the same compound?
The value was 200 ppm.

What about the “MIC (ppm), single agent” value (Coriolus versicolor [4]) of the same compound?
The value was 10.0 ppm.

`Clc1ccc(OCOCC#CI)cc1` [Control compound 1, 4-Chlorophenyl-3-iodopropargylformal, reference compound] was tested. Which “Mean weight decrease by decay (%)” value (Serpula lacrymans; [5]) did it give?
The value was 18.6%.

And the “Mean weight decrease by decay (%)” value (Serpula lacrymans; [6])?
The value was 9.7%.

What about the “MIC (ppm), single agent” value (Tyromyces palustris [3]) of the same compound?
The value was 2 ppm.

And the “MIC (ppm), single agent” value (Coriolus versicolor [4])?
The value was 6 ppm.

How did the “Wood preventive efficacy, Tyromyces palustris” value (Tyromyces palustris [1]) turn out when `Cc1cc(C(=O)Nc2cccc(C(=O)Nc3ccccc3)c2)c(C)o1` [Example 4, 2.5-Dimethylfuran-3-carboxyl[3-(N-phenylcarbamoyl)anilide]] was run?
The value was “−”.

And the “Wood preventive efficacy, Coriolus versicolor” value (Coriolus versicolor [2])?
The value was “−”.

`Cc1cc(C(=O)Nc2cccc(C(=O)OC(C)(C)C)c2)c(C)o1` [Example 5, 2,5-Dimethylfuran-3-carboxy(3-tert-butoxycarbonylanilide)] was tested. Which “Wood preventive efficacy, Tyromyces palustris” value (Tyromyces palustris [1]) did it give?
Its value is “−”.

What about the “Wood preventive efficacy, Coriolus versicolor” value (Coriolus versicolor [2]) of the same compound?
Its value is “−”.

Which results are given for `CCCCCCc1cccc(NC(=O)c2cc(C)oc2C)c1` [Example 23, 2,5-Dimethylfuran-3-carboxy(3-hexylanilide)]?
Wood preventive efficacy, Tyromyces palustris (Tyromyces palustris [1]): +; Wood preventive efficacy, Coriolus versicolor (Coriolus versicolor [2]): +
